From US20090317414A1, “CANCER VACCINE COMPRISING A MUCIN 1 (MUC1) T CELL EPITOPE-DERIVED PEPTIDE” (4G VACCINES PTY LTD, priority 2006, published 2009)
Like-named read-outs stand apart in the source and are kept apart here. No end group written: not given here.

Experiments:
[1] = tested on: MCF7 cells (human MUC1^+ breast cancer cell line); assay: Standard 51Cr CTL assay after immunisation of HLA-A2/K^b transgenic mice; type: in vivo, mouse; conditions: HLA-A2 transgenic mice immunised with peptide-KLH-oxidised mannan
Procedure: Peptide was coupled to KLH via glutaraldehyde. In brief, 2 mg KLH in 1 ml phosphate buffer saline (PBS) and 2 mg peptide in 1 ml PBS were mixed and added dropwise to 1 ml of 0.75% glutaraldehyde, and reacted overnight at room temperature. Glutaraldehyde is a bi-functional coupling reagent that links two compounds through their amino groups.
14 mg mannan was dissolved in 1 ml sodium phosphate buffer (pH 6), followed by the addition of 100 μl 0.1 M sodium periodate (dissolved in pH 6 phosphate buffer) and incubated on ice for 1 hour in the dark. 10 μL ethanediol was then added to the mixture and incubated for a further 30 mins on ice. The resultant mixture (oxidised mannan) was passed through a PD-10 column (Sephadex G-25 M column) pre-equilibrated in pH 9.0 phosphate buffer, to exclude out sodium periodate and ethanediol. Oxidised mannan (7 mg/ml) was eluted with 2 ml of pH 9 phosphate buffer, to which 1 mg peptide-KLH was added and allowed to react overnight at room temperature in the dark. Conjugation occurs via Schiff base formation between free amino groups of KLH and oxidised mannan. Samples were used without further purification. […]
HLA-A2/K^b transgenic mice were immunised with 5 μg of peptide intraperitoneally on days 0, 10, 17 and 7-10 days later CTL responses were measured using standard CTL assay as previously described.

[2] = biological target: T1, soluble H-2K^b (Mus musculus, UniProt P01901); assay: Affinity measurements for binding of peptides to soluble H-2K^b (inhibition assay); conditions: for increase in peptide affinity compared to MUC1-8 (competition studies): discussion, temperature not stated
T1 construct: heavy chain residues 1-274 with C-terminal His-tag and β2-microglobulin residues 1-99; His-tag (C); made in house; host or cells: Drosophila melanogaster cells
T1 sequence (P01901 22-295): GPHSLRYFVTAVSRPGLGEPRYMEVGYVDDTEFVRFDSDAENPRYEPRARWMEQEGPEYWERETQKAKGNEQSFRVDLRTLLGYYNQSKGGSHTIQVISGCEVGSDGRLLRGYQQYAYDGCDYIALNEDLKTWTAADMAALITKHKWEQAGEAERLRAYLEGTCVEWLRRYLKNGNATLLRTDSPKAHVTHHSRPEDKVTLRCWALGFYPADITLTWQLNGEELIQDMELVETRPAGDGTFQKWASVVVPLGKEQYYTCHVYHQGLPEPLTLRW
T1 sequence (P01887 21-119 partner): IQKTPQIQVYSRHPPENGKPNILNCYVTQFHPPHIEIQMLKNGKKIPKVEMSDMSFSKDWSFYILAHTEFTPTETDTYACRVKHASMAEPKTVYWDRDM
Procedure: The soluble extracellular domains of H-2K^b (heavy chain […]-terminal His-tag and β2-microglobulin […]. melanogaster cells, under the control of a metallothionein promoter as previously described. Briefly, D. melanogaster cells were expanded to large scale (up to 6 L) in serum free Insect Xpress® media (Cambrex Corporation, East Rutherford, N.J., United States of America) and CuSO4 (625 μM final concentration) was added 3-5 days before harvesting to induce expression of H-2K^b. The supernatant was concentrated using a […] tangential flow concentrator (PALL Corporation, East Hills, N.Y., United States of America) using a 10 kDa MWCO membrane (PALL) and then loaded onto an Ni-NTA column and eluted using 10-250 mM imidazole buffer gradient, pH 7.5. […] Affinity measurements for binding of peptides to soluble H-2K^b molecules were performed as previously described.

[3] = tested on: C57BL/6 mice; assay: IFN-γ ELISpot on splenocytes of C57BL/6 mice immunised with peptide-pulsed DC; type: in vivo, mouse
Procedure: (§1) C57BL/6 (H-2^b) or MUC1×HLA-A2 (H-2^b/H-2^d/HLA-A2) transgenic 6-8 week old mice were used. Bone marrow cells from C57BL/6 or MUC1×HLA-A2 female mice were cultured at 1×10^6 cells/ml in tissue culture media, supplemented with 10 ng/ml GM-CSF/IL-4. At day 6, cells were washed, re-suspended in the same culture media and 20 μg/ml peptides were loaded on DCs for 3 hr. Pulsed DC were washed and 100 μl (1-2×10^6 cells) injected intradermally in female mice into the base of tail. After 14 days mice were boosted and 16 days later splenocytes assessed by ELISpot.
(§2) To assess peptide specific IFN-γ production by CD8^+ T cells to each peptide, splenocytes from immunised mice were used in IFN-γ ELISpot assays. Spleen cells were incubated with 10^−5-10^−10 M of each MUC1 peptide, irrelevant peptide (OVA8, […]; SEQ ID NO: 8) or internal positive control concanavalin A (ConA) for 18 hr at 37° C., 8% CO2 on nitrocellulose plates [pre-coated with an anti-murine IFN-γ monoclonal antibody]. Plates were developed as previously described.

[4] = biological target: T2, MHC class I, H-2K^b on RMA-S cells (Mus musculus, UniProt P01901); assay: Peptide stabilisation assay using RMA-S cells (FACScan); type: cell-based, murine; conditions: TAP2-deficient RMA-S cells at 26° C.
T2 construct: MHC class I molecules in the murine cell line RMA-S; endogenous in cells; host or cells: RMA-S (murine, C57BL/6, TAP2-deficient)
T2 sequence (P01901 22-369): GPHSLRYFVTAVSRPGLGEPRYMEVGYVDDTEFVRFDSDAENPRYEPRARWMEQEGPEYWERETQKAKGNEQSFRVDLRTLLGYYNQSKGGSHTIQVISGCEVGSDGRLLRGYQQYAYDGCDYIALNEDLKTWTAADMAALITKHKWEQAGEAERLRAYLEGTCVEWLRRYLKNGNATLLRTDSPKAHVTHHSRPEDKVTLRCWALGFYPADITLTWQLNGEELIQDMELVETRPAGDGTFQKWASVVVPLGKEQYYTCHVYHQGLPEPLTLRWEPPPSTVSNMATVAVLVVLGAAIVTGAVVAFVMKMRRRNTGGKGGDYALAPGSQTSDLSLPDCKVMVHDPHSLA
T2 sequence (P01887 21-119 partner): T1 sequence (P01887 21-119 partner)
Procedure: MHC class I molecules in the murine cell line RMA-S (C57BL/6 TAP2-deficient cells) can be used to measure the direct binding of peptides to class I molecules in vitro. RMA-S cells (5×10^5 cells) were incubated with peptides (10^−4-10^−13 M) at 26° C. for 3 hr then transferred to 37° C. for 30 min. After washing with 0.5% BSA/PBS (2 ml), anti-H-2K^b (HB-158) IgG2a as supernatant (1/50 dilution, 100 μl) was added to RMA-S peptide loaded cells and incubated for 45 minutes at 4° C. The cells were washed once again and 100 μl (1:500 dilution) of FITC-conjugated sheep (Fab′)2 anti-mouse immunoglobulin was added and incubated for 45 min at 4° C.; after further washing, cells were analyzed by FACScan.

[5] = tested on: MUC1×HLA-A2 transgenic mice; assay: IFN-γ ELISpot on splenocytes of MUC1×HLA-A2 transgenic mice immunised with peptide-pulsed DC; type: in vivo, mouse; conditions: for recognition of all peptides higher than MUC1-8: MUC1×HLA-A2 transgenic mice
Procedure: as §1, §2

[6] = biological target: HLA-A2 (Homo sapiens, UniProt P04439, D140Y/D185E/D98H/E176V/E277Q/G131W/G231S/I119V/I121R/I166T/I218V/L10V/L300P/L318F/N151K/N90K/P208A/P217A/Q86G/Q94H/R138H/R169H/T345S); conditions: cited from earlier work
[7] = tested on: MCF7 cells (human MUC1^+ breast cancer cell line); conditions: HLA-A2 transgenic mice; previous studies [59]; cited from earlier work
[8] = 4° C., means of 5 values, SE 10-15%, read-out: KD 4° C.
[9] = 23° C., means of 5 values, SE 10-15%, read-out: KD 23° C.
[10] = 37° C., means of 5 values, SE 10-15%, read-out: KD 37° C.

With “TTAPPVHGL-KLH-oxidised mannan: peptide TTAPPVHGL coupled to KLH via glutaraldehyde and then to oxidised mannan (also: conjugated to KLH, conjugated to oxidised mannan)” the “CTL lysis of MCF7 cells, in words” value [1] was “able to specifically lyse MCF7 cells”.
Work on `CC[C@H](C)[C@H](NC(=O)[C@@H](NC(=O)[C@@H](N)CO)[C@@H](C)CC)C(=O)N[C@@H](CC(N)=O)C(=O)N[C@@H](Cc1ccccc1)C(=O)N[C@@H](CCC(=O)O)C(=O)N[C@@H](CCCCN)C(=O)N[C@@H](CC(C)C)C(=O)O` [OVA8, reference compound] yielded a Kd [2, 8] of 6 nM and a Kd [2, 9] of 10 nM.
In the case of SAPDFRPL [MUC1-8-5F8L], the “T cell response by IFN-γ ELISpot, in words” value ([3]; C57BL/6 mice) is reported as “the number of sfu/500,000 was higher”, the precursor frequency ([3]; after immunisation, mouse strain not given) is reported as 400 sfu/500,000 cells and the “peptide concentration at which H-2K^b was stabilised” value [4] is reported as > 10^−9 M. It also gave a Kd [2, 8] of 160 nM, a Kd [2, 9] of 60 nM and a Kd [2, 10] of 300 nM. The “increased peptide affinity by mutation of MUC1-8” value (“increased peptide affinity” for short) ([2]; at 23° C.) was 14 fold, the “increase in peptide affinity compared to MUC1-8 (competition studies)” value (shortened to “increase in peptide affinity”) [2] was 14 fold and the “T cell response by IFN-γ ELISpot, in words” value ([5]; MUC1×HLA-A2 transgenic mice (MUC1-8 is self)) was “generated even higher affinity T cells which recognised all peptides”.
For “TTAPPVHGL (Artifical sequence derived from human or mouse MUC1 T cell epitope)”, the “CTL lysis of MCF7 cells, in words” value [1] was “lysed MCF7 cells similarly to STAPPAHGV”.
For SAPDFRPA [MUC1-8-5F], the “peptide concentration at which H-2K^b was stabilised” value [4] was > 10^−7 M, the Kd [2, 8] was 460 nM and the Kd [2, 9] was 130 nM. For the same molecule, the Kd [2, 10] was 4900 nM, the “increased peptide affinity” value ([2]; at 23° C. and 37° C.) was “at least 7 fold” and the “increase in peptide affinity” value [2] was 7 fold. The “recognition of all peptides higher than MUC1-8” value [5] was 10 fold.
`CC(C)C[C@H](NC(=O)CNC(=O)[C@H](CCC(N)=O)NC(=O)[C@H](Cc1ccc(O)cc1)NC(=O)[C@@H](NC(=O)[C@H](Cc1ccc(O)cc1)NC(=O)CNC(=O)[C@@H](N)CCCNC(=N)N)C(C)C)C(=O)O` [VSV8, reference compound] gave a Kd ([2]; KD 4° C.) of 34 nM, a Kd ([2]; KD 23° C.) of 27 nM and a Kd ([2]; KD 37° C.) of 163 nM.
In the case of STAPPAHGV (listed as Homo sapiens), the “binding affinity to HLA-A2, in words” value [6] is listed as “low-medium affinity”.
For “DLHWASWV-KLH-oxidised mannan: mimic mutant peptide DLHWASWV conjugated to KLH and oxidised mannan, used as control (also: conjugated to KLH and oxidised mannan)”, the “CTL lysis of MCF7 cells, in words” value [7] is given as “able to specifically lyse MCF7 cells”.
For SAPDTRPA [MUC1-8, reference compound], the Kd [2, 8] was 433 nM, the Kd ([2]; 4° C., read-out: affinity measured in an inhibition assay) was 430 nM and the Kd [2, 9] was 877 nM. The Kd ([2]; 23° C., read-out: affinity measured in an inhibition assay) was 870 nM and the Kd [2, 10] was 37000 nM.
For SAPDTRPL [MUC1-8-8L], the “peptide concentration at which IFN-γ secreting T cells recognised all peptides” value ([3]; C57BL/6 mice immunised with peptide-pulsed DC) was 10^−9-10^−5 M, the “peptide concentration at which H-2K^b was stabilised” value [4] was > 10^−6 M and the Kd [2, 8] was 150 nM. The Kd [2, 9] was 250 nM, the Kd [2, 10] was 8900 nM and the “increased peptide affinity” value ([2]; at 23° C. and 37° C.) was “at least 3 fold”. The “increase in peptide affinity” value [2] was 3 fold and the “recognition of all peptides higher than MUC1-8” value [5] was 10 fold.
